Test results taken from patent US8999940B2 (Ipsen Pharma S.A.S., priority 2008, dated 2015).
Where no end group is shown, it is not given here. [ ]: non-standard residue; d: D form. The star is where a group is joined. Desaminotyrosyl = O=C(CCc1ccc(O)cc1)*; Hyp = O=C(O)[C@@H]1C[C@@H](O)CN1; Ac6c = NC1(C(=O)O)CCCCC1

Key:
[1] = Rat plasma half-life assay; type: in vitro ADME; details: 37° C., LC-MS, read-out: Rat Plasma T½ (converted)
Method: (§1) B. Human and Rat Plasma Half-Life Assay
(§2) 50 μl was removed at various times, like at 0, 1, 2, 3, 4, 8, 24, 32, 48, 56, 72 hours, mixed with 5 μl formic acid and 150 μL acetonitrile in a microcentrifuge tube, vertexed, and centrifuged for 10 minutes at 10 K rpm. The supernatant was transferred to an injection vial and analyzed by LC-MS. The LC-MS system consisted of an API4000 mass spectrometer with an ESI probe. Positive ion mode and full scan detection were used. HPLC separation was carried out on a Luna 3μ. C8 (2), 2×30 mm column with a gradient from 90% A to 90% B in 10 minutes at a flow rate of 0.3 ml/min. Buffer A was 1% formic acid in water and buffer B was 1% formic acid acetonitrile.

[2] = molecular target: T1, human recombinant GIP receptor (Homo sapiens, UniProt P48546); assay: In vitro hGIP receptor binding assay
T1 construct: expressed in transfected cells; host or cells: CHO-K1 clonal cells (membrane preparation)
T1 sequence (P48546 22-466): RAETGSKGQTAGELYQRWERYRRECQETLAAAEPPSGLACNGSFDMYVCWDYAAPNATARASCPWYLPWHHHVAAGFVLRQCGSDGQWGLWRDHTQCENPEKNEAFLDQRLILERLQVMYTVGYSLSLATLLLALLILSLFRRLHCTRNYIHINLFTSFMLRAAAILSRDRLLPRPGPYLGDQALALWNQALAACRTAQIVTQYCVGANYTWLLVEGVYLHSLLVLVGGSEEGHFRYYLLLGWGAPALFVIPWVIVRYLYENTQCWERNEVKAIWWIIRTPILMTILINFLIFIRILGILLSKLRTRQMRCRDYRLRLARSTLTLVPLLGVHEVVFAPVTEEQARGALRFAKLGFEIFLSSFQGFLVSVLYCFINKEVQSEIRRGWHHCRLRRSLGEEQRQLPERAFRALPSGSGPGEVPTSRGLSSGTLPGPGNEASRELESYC
Method: A. In Vitro hGIP Receptor Binding Assay […] The incubations were terminated by rapid filtration through GF/C filters (pre-soaked in 0.5% polyethylenimine) using a Brandel filtration manifold. Each tube and filter were then washed three times with 5-ml aliquots of ice-cold buffer.

[3] = Human plasma half-life assay; type: in vitro ADME; details: 37° C., LC-MS, read-out: Human Plasma T½ (converted)
Method: as §1, §2

Row | Molecule | half-life at 0.1 mg/ml [1] [h] | Ki [2] [nM] | half-life at 0.1 mg/ml [3] [h]
1 | CCCC[C@H](NC(=O)[C@H](C)NC(=O)[C@@H](NC(=O)C1(NC(=O)[C@H](Cc2ccc(O)cc2)NC(=O)[C@H](CC(=O)O)NC(=O)[C@H](CO)NC(=O)[C@@H](NC(=O)[C@H](Cc2ccccc2)NC(=O)[C@@H](NC(=O)CNC(=O)[C@H](CCC(=O)O)NC(=O)C(C)(C)NC(=O)[C@@H](N)Cc2ccc(Cl)cc2)[C@@H](C)O)[C@@H](C)CC)CCCC1)[C@@H](C)CC)C(=O)N[C@@H](CC(=O)O)C(=O)N[C@@H](CCCCN)C(=O)N[C@H](C(=O)N[C@@H](Cc1c[nH]cn1)C(=O)N[C@@H](CCC(N)=O)C(=O)N[C@@H](CCC(N)=O)C(=O)N[C@@H](CC(=O)O)C(=O)N[C@@H](Cc1ccccc1)C(=O)N[C@H](C(=O)N[C@@H](CC(N)=O)C(=O)N[C@@H](Cc1c[nH]c2ccccc12)C(=O)N[C@@H](CC(C)C)C(=O)N[C@@H](CC(C)C)C(=O)N[C@@H](C)C(=O)N[C@@H](CCC(N)=O)C(=O)N[C@@H](CCCCN)C(=O)NCC(=O)N[C@@H](CCCCN)C(=O)N[C@@H](CCCCN)C(=O)N[C@@H](CC(N)=O)C(=O)N[C@@H](CC(=O)O)C(=O)N[C@@H](Cc1c[nH]c2ccccc12)C(=O)N[C@@H](CCCCN)C(=O)N[C@@H](Cc1c[nH]cn1)C(=O)N[C@@H](CC(N)=O)C(=O)N[C@H](C(=O)N[C@H](C(=O)N[C@@H](CCC(N)=O)C(=O)O)[C@@H](C)O)[C@@H](C)CC)C(C)C)[C@@H](C)CC [Example 20, (Cpa^1, Aib^2, A5c^11, Nle^14)hGIP(1-42)-OH] | 24.3 | 9.4 | > 74
2 | CC[C@H](C)[C@H](NC(=O)[C@H](CCCCN)NC(=O)[C@H](CC(=O)O)NC(=O)[C@H](CCSC)NC(=O)[C@H](C)NC(=O)[C@@H](NC(=O)C1(NC(=O)[C@H](Cc2ccc(O)cc2)NC(=O)[C@H](CC(=O)O)NC(=O)[C@H](CO)NC(=O)[C@@H](NC(=O)[C@H](Cc2ccccc2)NC(=O)[C@@H](NC(=O)CNC(=O)[C@H](CCC(=O)O)NC(=O)C(C)(C)NC(=O)[C@@H](N)Cc2ccsc2)[C@@H](C)O)[C@@H](C)CC)CCCC1)[C@@H](C)CC)C(=O)N[C@@H](Cc1c[nH]cn1)C(=O)N[C@@H](CCC(N)=O)C(=O)N[C@@H](CCC(N)=O)C(=O)N[C@@H](CC(=O)O)C(=O)N[C@@H](Cc1ccccc1)C(=O)N[C@H](C(=O)N[C@@H](CC(N)=O)C(=O)N[C@@H](Cc1c[nH]c2ccccc12)C(=O)N[C@@H](CC(C)C)C(=O)N[C@@H](CC(C)C)C(=O)N[C@@H](C)C(=O)N[C@@H](CCC(N)=O)C(=O)N[C@@H](CCCCN)C(=O)NCC(=O)N[C@@H](CCCCN)C(=O)N[C@@H](CCCCN)C(=O)N[C@@H](CC(N)=O)C(=O)N[C@@H](CC(=O)O)C(=O)N[C@@H](Cc1c[nH]c2ccccc12)C(=O)N[C@@H](CCCCN)C(=O)N[C@@H](Cc1c[nH]cn1)C(=O)N[C@@H](CC(N)=O)C(=O)N[C@H](C(=O)NC1(C(=O)N[C@@H](CCC(N)=O)C(=O)O)CCCC1)[C@@H](C)CC)C(C)C [Example 37, (3Thi^1, Aib^2, A5c^11, 41)hGIP(1-42)-OH] | > 72 | 7.05 | 29.3
3 | Desaminotyrosyl-A[Hyp]GTF[Ac6c]SDYSIAMDKIHQQDFVNWLLAQKGKKNDWKHNITQ [Example 7, (4Hppa^1, 4Hyp^3, A6c^7)hGIP(1-42)-OH] | 6.8 | 251 | 38.5
4 | CCCC[C@H](NC(=O)[C@H](C)NC(=O)[C@@H](NC(=O)C1(NC(=O)[C@H](Cc2ccc(O)cc2)NC(=O)[C@H](CC(=O)O)NC(=O)[C@H](CO)NC(=O)[C@@H](NC(=O)[C@H](Cc2ccccc2)NC(=O)[C@@H](NC(=O)CNC(=O)[C@H](CCC(=O)O)NC(=O)C(C)(C)NC(=O)[C@@H](N)Cc2cc(I)c(O)c(I)c2)[C@@H](C)O)[C@@H](C)CC)CCCC1)[C@@H](C)CC)C(=O)N[C@@H](CC(=O)O)C(=O)N[C@@H](CCCCN)C(=O)N[C@H](C(=O)N[C@@H](Cc1c[nH]cn1)C(=O)N[C@@H](CCC(N)=O)C(=O)N[C@@H](CCC(N)=O)C(=O)N[C@@H](CC(=O)O)C(=O)N[C@@H](Cc1ccccc1)C(=O)N[C@H](C(=O)N[C@@H](CC(N)=O)C(=O)N[C@@H](Cc1c[nH]c2ccccc12)C(=O)N[C@@H](CC(C)C)C(=O)N[C@@H](CC(C)C)C(=O)N[C@@H](C)C(=O)N[C@@H](CCC(N)=O)C(=O)N[C@@H](CCCCN)C(=O)NCC(=O)N[C@@H](CCCCN)C(=O)N[C@@H](CCCCN)C(=O)N[C@@H](CC(N)=O)C(=O)N[C@@H](CC(=O)O)C(=O)N[C@@H](Cc1c[nH]c2ccccc12)C(=O)N[C@@H](CCCCN)C(=O)N[C@@H](Cc1c[nH]cn1)C(=O)N[C@@H](CC(N)=O)C(=O)N[C@H](C(=O)N[C@H](C(=O)N[C@@H](CCC(N)=O)C(=O)O)[C@@H](C)O)[C@@H](C)CC)C(C)C)[C@@H](C)CC [Example 17, (3,51-Tyr^1, Aib^2, A5c^11, Nle^14)hGIP(1-42)-OH] | 30.1 | 77.9 | > 72
5 | CCCC[C@H](NC(=O)[C@H](C)NC(=O)[C@@H](NC(=O)C1(NC(=O)[C@H](Cc2ccc(O)cc2)NC(=O)[C@H](CC(=O)O)NC(=O)[C@H](CO)NC(=O)[C@@H](NC(=O)[C@H](Cc2ccccc2)NC(=O)[C@@H](NC(=O)CNC(=O)[C@H](CCC(=O)O)NC(=O)C(C)(C)NC(=O)[C@@H](N)Cc2ccc(F)c(F)c2)[C@@H](C)O)[C@@H](C)CC)CCCC1)[C@@H](C)CC)C(=O)N[C@@H](CC(=O)O)C(=O)N[C@@H](CCCCN)C(=O)N[C@H](C(=O)N[C@@H](Cc1c[nH]cn1)C(=O)N[C@@H](CCC(N)=O)C(=O)N[C@@H](CCC(N)=O)C(=O)N[C@@H](CC(=O)O)C(=O)N[C@@H](Cc1ccccc1)C(=O)N[C@H](C(=O)N[C@@H](CC(N)=O)C(=O)N[C@@H](Cc1c[nH]c2ccccc12)C(=O)N[C@@H](CC(C)C)C(=O)N[C@@H](CC(C)C)C(=O)N[C@@H](C)C(=O)N[C@@H](CCC(N)=O)C(=O)N[C@@H](CCCCN)C(=O)NCC(=O)N[C@@H](CCCCN)C(=O)N[C@@H](CCCCN)C(=O)N[C@@H](CC(N)=O)C(=O)N[C@@H](CC(=O)O)C(=O)N[C@@H](Cc1c[nH]c2ccccc12)C(=O)N[C@@H](CCCCN)C(=O)N[C@@H](Cc1c[nH]cn1)C(=O)N[C@@H](CC(N)=O)C(=O)N[C@H](C(=O)N[C@H](C(=O)N[C@@H](CCC(N)=O)C(=O)O)[C@@H](C)O)[C@@H](C)CC)C(C)C)[C@@H](C)CC [Example 24, (3,4F-Phe^1, Aib^2, A5c^11, Nle^14)hGIP(1-42)-OH] | > 74 | 15.7 | > 74
6 | CC[C@H](C)[C@H](NC(=O)[C@H](CCCCN)NC(=O)[C@H](CC(=O)O)NC(=O)[C@H](CCSC)NC(=O)[C@H](C)NC(=O)[C@@H](NC(=O)C1(NC(=O)[C@H](Cc2ccc(O)cc2)NC(=O)[C@H](CC(=O)O)NC(=O)[C@H](CO)NC(=O)[C@@H](NC(=O)[C@H](Cc2ccccc2)NC(=O)[C@@H](NC(=O)CNC(=O)[C@H](CCC(=O)O)NC(=O)C(C)(C)NC(=O)[C@@H](N)Cc2ccc(O)c([N+](=O)[O-])c2)[C@@H](C)O)[C@@H](C)CC)CCCC1)[C@@H](C)CC)C(=O)N[C@@H](Cc1c[nH]cn1)C(=O)N[C@@H](CCC(N)=O)C(=O)N[C@@H](CCC(N)=O)C(=O)N[C@@H](CC(=O)O)C(=O)N[C@@H](Cc1ccccc1)C(=O)N[C@H](C(=O)N[C@@H](CC(N)=O)C(=O)N[C@@H](Cc1c[nH]c2ccccc12)C(=O)N[C@@H](CC(C)C)C(=O)N[C@@H](CC(C)C)C(=O)N[C@@H](C)C(=O)N[C@@H](CCC(N)=O)C(=O)N[C@@H](CCCCN)C(=O)NCC(=O)N[C@@H](CCCCN)C(=O)N[C@@H](CCCCN)C(=O)N[C@@H](CC(N)=O)C(=O)N[C@@H](CC(=O)O)C(=O)N[C@@H](Cc1c[nH]c2ccccc12)C(=O)N[C@@H](CCCCN)C(=O)N[C@@H](Cc1c[nH]cn1)C(=O)N[C@@H](CC(N)=O)C(=O)N[C@H](C(=O)NC1(C(=O)N[C@@H](CCC(N)=O)C(=O)O)CCCC1)[C@@H](C)CC)C(C)C [Example 36, (3NO2-Tyr^1, Aib^2, A5c^11, 41)hGIP(1-42)-OH] | 11.7 | 11.2 | > 72
